Experimental data as given in patent US9603845B2, “Prophylactic agent and/or therapeutic agent for stress urinary incontinence” (priority 2012, dated 2017).
Marks after values point to notes of the source that are not given here.

What was measured:
female SD rats = test: Leak point pressure (LPP) of a rat: intravesical pressure when urinary leakage occurs; format: in vivo; conditions: 3 mg/kg intravenous, 5 minutes after administration; for Leak point pressure (LPP): urethane-anesthetized, spinal cord-transected female SD rats, average ± standard error, physiological saline 24.6±0.6
[1] = test system: stress urinary incontinence model rats; conditions: rat, in vivo

SMILES | LPP compared with the physiological saline group (in words) (female SD rats) | Leak point pressure (LPP) (female SD rats) [cmH2O] | Frequency of urinary incontinence, 30 minutes after administration [1] | Frequency of urinary incontinence, 2 hours after administration [1] | Number of rats that express urinary incontinence due to the electrical stimulus (in words) [1] | Frequency of urinary incontinence, before administration ([1]; po)
CCCOC(C(=O)OC1CCN(C)CC1)(c1ccccc1)c1ccccc1 [propiverine, α,α-diphenyl-α-n-propoxy acetic acid 1-methyl-4-piperidyl ester, reference compound] | no significant difference | 24.9±1.9 |  |  |  | 
CCCOC(C(=O)OC1CCNCC1)(c1ccccc1)c1ccccc1 [the compound of the present invention, 4-piperidyl diphenylpropoxyacetate] | significantly higher | 31.1±2.3 | 4 | 3* | significantly decreased | 8
